# Data published in patent US20140128357A1, “METHODS OF PRODUCING AND USING BRASSINOSTEROIDS TO PROMOTE GROWTH, REPAIR AND MAINTENANCE OF SKELETAL MUSCLE AND SKIN” (Rutgers University, priority 2010, published 2014).
# Where two headings read alike, the source gives them in different places.
# Experiments:
# [1] = tested on: orchiectomized (ORX) Wistar rats; assay: 10-d Hershberger assay in ORX rats, subcutaneous HB (Protocol 4); type: in vivo, rat; settings: for increase in gastrocnemius muscle mass: subcutaneous
# Procedure: Protocol 4: Four-week-old sham-operated (sham, n=6) or orchiectomized (ORX, n=24) Wistar rats (Charles River Laboratories, MA) were subject to a 10-d Hershberger assay (surgically castrated peri-pubertal adult model) under the following experimental conditions: sham, ORX (vehicle), ORX (0.4 mg/kg HB subcutaneously), ORX (4 mg/kg HB subcutaneously), and ORX (0.4 mg/kg testosterone propionate subcutaneously, serving as a positive control for the assay). All procedures and measurements followed protocol 1. […]
# [2] = tested on: orchiectomized (ORX) Wistar rats; type: in vivo, rat; settings: for Glans penis weight: listed as HB
# Procedure: Protocol 3: Four-week-old sham-operated (sham, n=6) or orchiectomized (ORX, n=24) Wistar rats (Charles River Laboratories, MA) were subject to a 10-d Hershberger assay (surgically castrated peri-pubertal adult model) under the following experimental conditions: sham, ORX (vehicle), ORX (20 mg/kg HB orally), ORX (60 mg/kg HB orally), and ORX (0.4 mg/kg testosterone propionate subcutaneously, serving as a positive control for the assay). All procedures and measurements followed protocol 1, except no body composition measurements were taken. Limb grip strength was measured for control animals and animals receiving 60 mg/kg HB using a digital force gauge (Wagner Instruments model FDV5) by Product Safety Laboratories (Dayton, N.J.). After the rats were allowed to grip the screen with paws, the animals were quickly pulled until the paws released from the screen, and the required release force was recorded. Three trials on each animal were performed in triplicate, and significance was determined using Student's t test (p<0.05). In addition to the gastrocnemius muscle, androgen-sensitive tissues (ventral prostate, seminal vesicles, bulbocavernosus/levator ani muscle complex, glans penis, and Cowper's gland) were dissected out and weighed.
# The muscle samples for histochemical analysis were taken from the middle section of the mixed-fiber gastrocnemius muscle of the castrated animals treated according to protocol 4 (described herein above) to allow for the observation of differences in fiber type distribution and cross-section area associated with ORX and HB treatments. Serial transverse cryosections (10 μm) were prepared from each muscle and were analyzed for myofibrillar adenosine triphosphatase (mATPase) histochemistry after alkaline (pH=9.5) preincubation. Fiber cross-section area and enzyme activity levels were determined from digitized images of the muscle cross-sections that were stored as gray-level pictures using ImageJ software (National Institutes of Health, Bethesda, Md.). […]
# [3] = tested on: 3T3 mouse fibroblasts; assay: Cell proliferation, BrdU assay; type: cell-based; settings: 24 h
# Procedure: 3T3 fibroblasts were seeded in a 96-well flat bottom plate at a density of 1×10^4 cells/well. Cell viability was measured by an MTT (3-(4,5-Dimethylthiazol-2-yl)-2,5-diphenyltetrazolium bromide) assay in triplicate (0.3-30 μM of test substance for […]) essentially as described by Mosmann (J. Immunol. Methods 65, 55-63, 1983) and quantified spectrophotometrically at 550 nm using a microplate reader (Molecular Devices, Sunnyvale, Calif.). […] For cell proliferation studies, cells were treated in triplicate with 0.1-10 μM of test substance for 24 h and assayed using a BrdU (5-bromo-2′-deoxyuridine) kit from Amersham (Uppsala, Sweden).
# [4] = Cytotoxicity, MTT assay in 3T3 fibroblasts; type: cell-based, mouse; settings: mouse
# [5] = 0.4 mg/kg subcutaneous daily 10 d
# [6] = 4 mg/kg subcutaneous daily 10 d
# [7] = ORX rats, 20 mg/kg oral daily 10 d
# [8] = ORX rats, 60 mg/kg oral daily 10 d
# [9] = ORX rats, 60 mg/kg oral per day 10 days
smiles,measurement,setting,value
"CC[C@@H](C(C)C)[C@H](O)[C@@H](O)[C@@H](C)[C@H]1CC[C@H]2[C@@H]3COC(=O)[C@H]4C[C@H](O)[C@H](O)C[C@]4(C)[C@H]3CC[C@]12C [Compound 1, (22S,23S,24S)-2α,3α,22,23-tetrahydroxy-24 ethyl-β-homo-7-oxo-5α-cholestane-6-one]",Bulbocavernosus/levator ani weight,[1]; [5],131.3 ± 7.1 mg
same,Cowper's gland weight,[1]; [5],11.3 ± 0.5 mg
same,Glans penis weight,[1]; [5],50.7 ± 1.9 mg
same,Seminal vesicles weight,[1]; [5],29.0 ± 3.1 mg
same,Ventral prostate weight,[1]; [5],18.3 ± 1.2 mg
same,Bulbocavernosus/levator ani weight,[1]; [6],147.5 ± 6.9 mg
same,Cowper's gland weight,[1]; [6],10.5 ± 0.3 mg
same,Glans penis weight,[1]; [6],56.3 ± 3.3 mg
same,Seminal vesicles weight,[1]; [6],30.2 ± 1.2 mg
same,Ventral prostate weight,[1]; [6],23.2 ± 1.2 mg
same,increase in gastrocnemius muscle mass,[1]; one-fold dose of positive control (0.4 mg/kg),2.8%
same,increase in gastrocnemius muscle mass,[1]; ten-fold dose of positive control (4 mg/kg),9.1%
same,increase in gastrocnemius muscle mass,"[2]; ORX rats, 20 mg/kg oral 10 d",13.8%
same,Bulbocavernosus/levator ani weight,[2]; [7],109.2 ± 8.6 mg
same,Cowper's gland weight,[2]; [7],11.2 ± 0.7 mg
same,Seminal vesicles weight,[2]; [7],37.3 ± 3.5 mg
same,Ventral prostate weight,[2]; [7],26.0 ± 2.5 mg
same,Glans penis weight,"[2]; ORX rats, 20 mg/kg oral daily 10 d, 20 mg/kg",55.3 ± 1.7 mg
same,increase in gastrocnemius muscle mass,"[2]; ORX rats, 60 mg/kg oral 10 d",10.3%
same,Bulbocavernosus/levator ani weight,[2]; [8],137.7 ± 9.9 mg
same,Cowper's gland weight,[2]; [8],12.5 ± 1.1 mg
same,Seminal vesicles weight,[2]; [8],34.7 ± 3.3 mg
same,Ventral prostate weight,[2]; [8],23.0 ± 2.4 mg
same,Glans penis weight,"[2]; ORX rats, 60 mg/kg oral daily 10 d, 60 mg/kg",59.6 ± 1.6 mg
same,Change in grip strength of lower extremities,[2]; [9],0.0851 ± 0.0197 kg
same,change in grip strength for front limbs,[2]; [9],0.2711 ± 0.0660 kg
same,increase in total number of type IIa and type IIb fibers,"[2]; gastrocnemius, 20 or 60 mg/kg per day 10 d, independent of dose",approximately 60%
same,androgenic activity in the Hershberger assay,"[2]; rat, in vivo",very low androgenic activity
same,"Cell proliferation at 5 μM, % of control",[3],37.7 ± 3.4 %
"CC[C@@H](C(C)C)[C@H](O)[C@@H](O)[C@@H](C)[C@H]1CC[C@H]2[C@@H]3CC(=O)[C@H]4C[C@H](O)[C@H](O)C[C@]4(C)[C@H]3CC[C@]12C [Compound 2, (22S,23S,24S)-2α,3α, 22,23-tetrahydroxy-24-ethyl-5α-cholestan-6-one]",IC50,[4],> 30 µM
